The record followed here is US20080220100A1, “Fermented panax notoginseng solution with anti-cancer effects and manufacture method thereof” (MICROBIO COMPANY LTD., TAIWAN, priority 2007, published 2008).

In one data set the test system is Hep 3B/T2 cancer cells. Briefly: SCID mice injected with Hep 3B/T2 cancer cells, fed fermented product for 35 days. The class given is in vivo. To be noted: positive control group. On the procedure:
SCID mice with 18 to 22 g body weight were classified into 5 groups and 10 mice per group. […] The tumor size of the SCID mice was measured every 3 to 4 days, and the weight of the heart, liver, spleen, lung, and kidney of the SCID mice was measured when the experiment was finished.

The nature of data set [1]: Anti-oxidation capacity relative to vitamin E. To be noted: vitamin E defined to 100; medium with increasing share of black bean powder. From the text:
The same procedure carried out in Example 2 was repeated except that the content of the Panax notoginseng medium was changed. The content of the Panax notoginseng medium included 4 types: ¼ Panax notoginseng powder and ¾ black powder, ½ Panax notoginseng powder and 1/2 black powder, ¾ Panax notoginseng powder and ¼ black powder, and all Panax notoginseng powder.

Turning to `O=c1[nH]cc(F)c(=O)[nH]1` [5-FU, fluorouracil], in the data set on Hep 3B/T2 cancer cells, the Heart weight worked out at 143.2 ± 14.6 mg, the Kidney weight came to 328.2 ± 26.2 mg, the Liver weight came out at 1171.3 ± 103.0 mg and the Lung weight was 215.8 ± 23 mg. Further, in the data set on Hep 3B/T2 cancer cells, the Spleen weight was determined as 118.7 ± 35.6 mg and the Tumor weight stood at 376.1 ± 232.9 mg.

The compound vitamin E returned an anti-oxidation capacity in data set [1] of 100.
